Test results: patent US10890591B2, “Methods and dose packs for monitoring medication adherence” (Synapse Biosciences, LLC, priority 2016, dated 2021)
Like-named read-outs stand apart in the source and are kept apart here. Each block holds one compound with its values, some of them ahead of it.

Key:
clinical [1] = settings: human, in vivo
Excerpt: (§1) All other markers were obtained from commercial sources. Urine and saliva were collected prior to each day's dosing of marker confirming the presence or absence of markers before the experiment started. […] The presence of all 7 markers at day 8 would confirm that all markers were ingested in the previous 7 day one week period.
(§2) Healthy volunteers with no recent exposure to the markers who were not currently taking prescribed medications, OTC medications or vitamins and supplements were chosen. Exposure to the markers more than one month before starting the experiment was allowed and no dietary restrictions were required. Subjects were given a 7 day blister pack with markers sequenced in the order above. Subjects verbally confirmed they understood the urine and saliva collection procedures. Instructions printed on the marker blister pack instructed subjects to collect urine and saliva each morning before they took the daily dose of marker. They were also instructed to take the daily dose of marker close to the same time each day.

clinical [2] = settings: in vivo
Excerpt: as §1, §2

[3] = human, in vivo
clinical [4] = settings: human, in vivo, Urine Results
[5] = human, Average of Urine Samples
[6] = human, Subject A, Urine Results
[7] = human, Subject B, Urine Results

- concentration at 1 day (clinical [1]): 0 ng/mL
- concentration at 2 day (clinical [1]): 0 ng/mL
- concentration at 3 day (clinical [1]): 0 ng/mL
- concentration at 4 day (clinical [1]): 0 ng/mL
- concentration at 5 day (clinical [1]): 0 ng/mL
- concentration at 6 day (clinical [1]): 227 ng/mL
- concentration at 7 day (clinical [1]): 0 ng/mL
- concentration at 8 day (clinical [1]): 0 ng/mL
- detection of marker in saliva across subjects (clinical [1]): not detectable in 2 of the 4 subjects
- Subject C, Urine Results (clinical [2]; human, 1 day): 0 ng/m
- Subject D, Urine Results (clinical [2]; human, 1 day): 0 ng/m
- Subject C, Urine Results (clinical [2]; human, 2 day): 0 ng/m
- Subject D, Urine Results (clinical [2]; human, 2 day): 0 ng/m
- Subject C, Urine Results (clinical [2]; human, 3 day): 0 ng/m
- Subject D, Urine Results (clinical [2]; human, 3 day): 0 ng/m
- Subject C, Urine Results (clinical [2]; human, 4 day): 0 ng/m
- Subject D, Urine Results (clinical [2]; human, 4 day): 0 ng/m
- Subject C, Urine Results (clinical [2]; human, 5 day): 0 ng/m
- Subject D, Urine Results (clinical [2]; human, 5 day): 0 ng/m
- Subject A, Urine Results (clinical [2]; human, 6 day): 2020000 ng/mL
- Subject C, Urine Results (clinical [2]; human, 6 day): 618000 ng/m
- Subject D, Urine Results (clinical [2]; human, 6 day): 585000 ng/m
- Subject C, Urine Results (clinical [2]; human, 7 day): 144000 ng/m
- Subject D, Urine Results (clinical [2]; human, 7 day): 185000 ng/m
- Subject C, Urine Results (clinical [2]; human, 8 day): 125000 ng/m
- Subject D, Urine Results (clinical [2]; human, 8 day): 54100 ng/m
- concentration at 1 day (clinical [2]; [5]): 0 ng/mL
- concentration at 2 day (clinical [2]; [5]): 0 ng/mL
- concentration at 3 day (clinical [2]; [5]): 0 ng/mL
- concentration at 4 day (clinical [2]; [5]): 0 ng/mL
- concentration at 5 day (clinical [2]; [5]): 0 ng/mL
- concentration at 6 day (clinical [2]; [5]): 972000 ng/mL
- concentration at 7 day (clinical [2]; [5]): 163000 ng/mL
- concentration at 8 day (clinical [2]; [5]): 88700 ng/mL
- concentration at 1 day (clinical [2]; [6]): 0 ng/mL
- concentration at 2 day (clinical [2]; [6]): 0 ng/mL
- concentration at 3 day (clinical [2]; [6]): 0 ng/mL
- concentration at 4 day (clinical [2]; [6]): 0 ng/mL
- concentration at 5 day (clinical [2]; [6]): 0 ng/mL
- concentration at 1 day (clinical [2]; [7]): 0 ng/mL
- concentration at 2 day (clinical [2]; [7]): 0 ng/mL
- concentration at 3 day (clinical [2]; [7]): 0 ng/mL
- concentration at 4 day (clinical [2]; [7]): 0 ng/mL
- concentration at 5 day (clinical [2]; [7]): 0 ng/mL
- concentration at 6 day (clinical [2]; [7]): 663000 ng/mL
- concentration at 7 day (clinical [2]; [7]): 151000 ng/mL
- concentration at 8 day (clinical [2]; [7]): 120000 ng/mL
- concentration at 1 day (clinical [4]; Subject A): 0 ng/mL
- concentration at 2 day (clinical [4]; Subject A): 0 ng/mL
- concentration at 3 day (clinical [4]; Subject A): 0 ng/mL
- concentration at 4 day (clinical [4]; Subject A): 0 ng/mL
- concentration at 5 day (clinical [4]; Subject A): 0 ng/mL
- concentration at 6 day (clinical [4]; Subject A): 481000 ng/mL
- concentration at 1 day (clinical [4]; Subject B): 0 ng/mL
- concentration at 2 day (clinical [4]; Subject B): 0 ng/mL
- concentration at 3 day (clinical [4]; Subject B): 0 ng/mL
- concentration at 4 day (clinical [4]; Subject B): 0 ng/mL
- concentration at 5 day (clinical [4]; Subject B): 0 ng/mL
- concentration at 6 day (clinical [4]; Subject B): 0 ng/mL
- concentration at 7 day (clinical [4]; Subject B): 0 ng/mL
- concentration at 8 day (clinical [4]; Subject B): 0 ng/mL
- concentration at 1 day (clinical [4]; Subject C): 0 ng/mL
- concentration at 2 day (clinical [4]; Subject C): 0 ng/mL
- concentration at 3 day (clinical [4]; Subject C): 0 ng/mL
- concentration at 4 day (clinical [4]; Subject C): 0 ng/mL
- concentration at 5 day (clinical [4]; Subject C): 0 ng/mL
- concentration at 6 day (clinical [4]; Subject C): 151000 ng/mL
- concentration at 7 day (clinical [4]; Subject C): 214000 ng/mL
- concentration at 8 day (clinical [4]; Subject C): 8840 ng/mL
- concentration at 3 day (clinical [4]; Subject D): 0 ng/mL
- concentration at 4 day (clinical [4]; Subject D): 0 ng/mL
- concentration at 5 day (clinical [4]; Subject D): 0 ng/mL
- concentration at 6 day (clinical [4]; Subject D): 684000 ng/mL
- concentration at 8 day (clinical [4]; Subject D): 75300 ng/mL
Structure (SMILES): CN(C)CCOC(c1ccccc1)c1ccccc1 [Diphenhydramine]
- course of urine levels relative to dosing (clinical [2]): zero before dosing, peaked the day after dosing and slowly decreased over time
- course of urine levels relative to dosing [3]: zero before dosing, peaked the day after dosing and slowly decreased over time

- concentration at 1 day (clinical [1]): 0 ng/mL
- concentration at 2 day (clinical [1]): 0 ng/mL
- concentration at 3 day (clinical [1]): 0 ng/mL
- concentration at 4 day (clinical [1]): 0 ng/mL
- concentration at 5 day (clinical [1]): 5.71 ng/mL
- concentration at 6 day (clinical [1]): 0.34 ng/mL
- concentration at 7 day (clinical [1]): 0 ng/mL
- concentration at 8 day (clinical [1]): 0 ng/mL
- Subject C, Urine Results (clinical [2]; human, 1 day): 0 ng/m
- Subject D, Urine Results (clinical [2]; human, 1 day): 0 ng/m
- Subject C, Urine Results (clinical [2]; human, 2 day): 0 ng/m
- Subject D, Urine Results (clinical [2]; human, 2 day): 0 ng/m
- Subject C, Urine Results (clinical [2]; human, 3 day): 0 ng/m
- Subject D, Urine Results (clinical [2]; human, 3 day): 0 ng/m
- Subject C, Urine Results (clinical [2]; human, 4 day): 0 ng/m
- Subject D, Urine Results (clinical [2]; human, 4 day): 0 ng/m
- Subject C, Urine Results (clinical [2]; human, 5 day): 968 ng/m
- Subject D, Urine Results (clinical [2]; human, 5 day): 3820 ng/m
- Subject C, Urine Results (clinical [2]; human, 6 day): 165 ng/m
- Subject D, Urine Results (clinical [2]; human, 6 day): 260 ng/m
- Subject C, Urine Results (clinical [2]; human, 7 day): 122 ng/m
- Subject D, Urine Results (clinical [2]; human, 7 day): 37.3 ng/m
- Subject C, Urine Results (clinical [2]; human, 8 day): 78.9 ng/m
- Subject D, Urine Results (clinical [2]; human, 8 day): 19.4 ng/m
- concentration at 1 day (clinical [2]; [5]): 0 ng/mL
- concentration at 2 day (clinical [2]; [5]): 0 ng/mL
- concentration at 3 day (clinical [2]; [5]): 0 ng/mL
- concentration at 4 day (clinical [2]; [5]): 0 ng/mL
- concentration at 5 day (clinical [2]; [5]): 1560 ng/mL
- concentration at 6 day (clinical [2]; [5]): 203 ng/mL
- concentration at 7 day (clinical [2]; [5]): 64.5 ng/mL
- concentration at 8 day (clinical [2]; [5]): 43.2 ng/mL
- concentration at 1 day (clinical [2]; [6]): 0 ng/mL
- concentration at 2 day (clinical [2]; [6]): 0 ng/mL
- concentration at 3 day (clinical [2]; [6]): 0 ng/mL
- concentration at 4 day (clinical [2]; [6]): 0 ng/mL
- concentration at 1 day (clinical [2]; [7]): 0 ng/mL
- concentration at 2 day (clinical [2]; [7]): 0 ng/mL
- concentration at 3 day (clinical [2]; [7]): 0 ng/mL
- concentration at 4 day (clinical [2]; [7]): 0 ng/mL
- concentration at 1 day (clinical [4]; Subject A): 0 ng/mL
- concentration at 2 day (clinical [4]; Subject A): 0 ng/mL
- concentration at 3 day (clinical [4]; Subject A): 0 ng/mL
- concentration at 4 day (clinical [4]; Subject A): 0 ng/mL
- concentration at 1 day (clinical [4]; Subject B): 0 ng/mL
- concentration at 2 day (clinical [4]; Subject B): 0 ng/mL
- concentration at 3 day (clinical [4]; Subject B): 0 ng/mL
- concentration at 4 day (clinical [4]; Subject B): 0 ng/mL
- concentration at 1 day (clinical [4]; Subject C): 0 ng/mL
- concentration at 2 day (clinical [4]; Subject C): 0 ng/mL
- concentration at 3 day (clinical [4]; Subject C): 0 ng/mL
- concentration at 4 day (clinical [4]; Subject C): 0 ng/mL
- concentration at 5 day (clinical [4]; Subject C): 3830 ng/mL
- concentration at 6 day (clinical [4]; Subject C): 429 ng/mL
- concentration at 7 day (clinical [4]; Subject C): 390 ng/mL
- concentration at 8 day (clinical [4]; Subject C): 139 ng/mL
- concentration at 3 day (clinical [4]; Subject D): 0 ng/mL
- concentration at 4 day (clinical [4]; Subject D): 0 ng/mL
- concentration at 5 day (clinical [4]; Subject D): 5050 ng/mL
- concentration at 6 day (clinical [4]; Subject D): 1670 ng/mL
- concentration at 8 day (clinical [4]; Subject D): 27.8 ng/mL
Structure (SMILES): NC(N)=Nc1nc(CSCCC(N)=NS(N)(=O)=O)cs1 [Famotidine]
- course of urine levels relative to dosing (clinical [2]): zero before dosing, peaked the day after dosing and slowly decreased over time
- course of urine levels relative to dosing [3]: zero before dosing, peaked the day after dosing and slowly decreased over time
